The species entered for assay [1] is Mus musculus. The assay is described as follows: Stimulation of GST level in Swiss Albino mouse liver. It counts as functional.
The species named for assay [2] is Mus musculus. The assay is described as follows: Stimulation of GSH level per protein in Swiss Albino mouse liver. It counts as functional.
Assay [3] concerns Mus musculus. The assay is described as follows: Hepatoprotecting activity in Swiss Albino mouse liver assessed as […] level at 3 mg/kg, po for 20 days. It counts as functional.
The species named for assay [4] is Mus musculus. The assay is described as follows: Effect on lipid-peroxidation level per protein in Swiss Albino mouse liver. It counts as functional, organism-based.
The nature of assay [5]: Inhibition of DPPH radical scavenging activity. It counts as functional.
Assay [6] deals with Mus musculus. The assay is described as follows: Hepatoprotecting activity in Swiss Albino mouse liver assessed as ALT level at 3 mg/kg, po for 20 days. It counts as functional.
In assay [7] the test system is Mus musculus. The assay is described as follows: Hepatoprotecting activity in Swiss Albino mouse liver assessed as urea level at 3 mg/kg, po for 20 days.
The species entered for assay [8] is Mus musculus. The assay is described as follows: Stimulation of SOD level per protein in Swiss Albino mouse liver. It counts as functional.
For assay [9], the species on record is Mus musculus. The assay is described as follows: Stimulation of CAT level per protein in Swiss Albino mouse liver. It counts as functional.

SMILES strings stand for the structures. A value given as a limit tells only on which side of the number the result lay.

For the compound `CC(C)=CCC/C(C)=C\COc1ccc(/C=C2/SC(=O)NC2=O)cc1`, the Activity in assay [1] worked out at 160.33 nmol/mg/min; in [2] it was 245.32 nmol/mg; in assay [3], 32.88 IU/L; in [4], 0.148 nmol/mg; in [6], 6.32 IU/L; in assay [8], 70.15 U/mg. This compound registered an Activity in assay [9] of 22.32 U/mg. The same compound gave an IC50 in assay [5] of 9.8 µM. Besides, the Urea level in assay [7] worked out at 14.69 mg/dL.
Consider `O=C1NC(=O)/C(=C\c2ccc(O)cc2)S1`, for which half-maximal inhibition in assay [5] (IC50) was put at 12 µM.
Same read-out and setting: the value for `CC(C)=CCOc1ccccc1/C=C1/SC(=O)NC1=O` was 43.3 µM; that for `COc1cc(/C=C2/SC(=O)NC2=O)cc(OC)c1O` was 2.85 µM.
`COc1cc(/C=C2/SC(=O)NC2=O)ccc1OC/C=C(/C)CCC=C(C)C` had an IC50 in assay [5] of 17.6 µM.
On the same count and under the same terms, the value for `Cc1c(C)c2c(c(C)c1O)CC[C@@](C)(CCC[C@H](C)CCC[C@H](C)CCCC(C)C)O2` [ALPHA-TOCOPHEROL] was 2.3 µM.
Take `COc1cc(/C=C2/SC(=O)NC2=O)cc(OC)c1OCC=C(C)C`: the Activity in assay [1] stood at 140.54 nmol/mg/min; in assay [2] it was 238.22 nmol/mg; in assay [3], 37.99 IU/L; in [4] it was 0.158 nmol/mg; in assay [6], 7.3 IU/L; in assay [8], 67.45 U/mg. Also, the Activity in assay [9] is 23.97 U/mg. This compound registered an IC50 in assay [5] of 4.08 µM. The Urea level in assay [7] amounted to 16.53 mg/dL.
`O=C1NC(=O)/C(=C\c2ccccc2O)S1` yielded an IC50 in [5] of 23.5 µM.
The compound `COc1cc(/C=C2/SC(=O)NC2=O)cc(OC)c1OC/C=C(/C)CCC=C(C)C` came in with an IC50 in [5] of 32.1 µM.
On to `COc1cc(/C=C2/SC(=O)NC2=O)ccc1O`, for which the Activity was determined as 220.8 nmol/mg/min in [1]; 184.09 nmol/mg in [2]; 38.1 IU/L in assay [3]; 0.143 nmol/mg in [4]; 4.8 IU/L in assay [6]; 65.45 U/mg in assay [8]. The compound also came in with an Activity in assay [9] of 16.85 U/mg. In addition, the IC50 in assay [5] turned out to be 2.49 µM. Further, in [7], the Urea level came out at 13.83 mg/dL.
`CC(C)=CCOc1ccc(/C=C2/SC(=O)NC2=O)cc1` returned an IC50 in assay [5] of over 50 µM.
Same read-out and setting: the value for `COc1cc(/C=C2/SC(=O)NC2=O)ccc1OCC=C(C)C` was 17.9 µM; that for `CC(C)=CCC/C(C)=C/COc1ccccc1/C=C1/SC(=O)NC1=O` was 12 µM.

The values above are taken from ChEMBL document CHEMBL1144596, “Synthesis of O-prenylated and O-geranylated derivatives of 5-benzylidene2,4-thiazolidinediones and evaluation of their free radical scavenging activity as well as effect on some phase II antioxidant/detoxifying enzymes” (Bioorg Med Chem Lett, 2007).
